Measurements taken from patent US5606037A, “Processes antineoplastic heteronaphthoquinones” (BioChem Pharma Inc., priority 1995, dated 1997).
pIC50: −log10 of the molar value. Structures can show the parent of a compound that is named as a salt.

Tests used:
[1] = system: SKOV3 (Ovarian adenocarcinoma); assay: In vitro cytotoxicity, microculture tetrazolium (MTT) assay, SKOV3; type: cell-based, Human; settings: for pIC50: SKOV3 ovarian adenocarcinoma, 48 h with compound, further 48 h, MTT, Table 1
Method in brief: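 Cells plated overnight, then exposed to compound (1:3 dilutions, 100 μM to 1.7 nM, quadruplicate) 48 h at 37 °C, followed by 48 h in fresh medium. MTT 4 h, formazan extracted in DMSO/Sorensen's buffer pH 10.5, A570; four-parameter logistic fit on 0–100% survival scale.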

[2] = system: T47D (Ductal carcinoma of breast); assay: In vitro cytotoxicity, microculture tetrazolium (MTT) assay, T47D; type: cell-based, Human; settings: 48 h with compound, further 48 h, Table 1
Method in brief: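 Adherent cells (1,500-4,000/well) were exposed to compound in 1:3 dilutions from 100 μM to 1.7 nM, in quadruplicate, for 48 h at 37° C, followed by 48 h in fresh medium. MTT formazan was read at 570 nm, and data were fitted by four-parameter logistic on a 0-100% survival scale.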

Lox (Melanoma) = assay: In vitro cytotoxicity, microculture tetrazolium (MTT) assay, LOX; type: cell-based, Human; settings: 48 h with compound, further 48 h, Table 1
Method in brief: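 LOX melanoma cells, 1,500–4,000 per well, exposed to compound (1:3 dilutions, 100 μM to 1.7 nM) for 48 h at 37° C., then 48 h in fresh medium. MTT reduction read at 570 nm; four-parameter logistic fit normalized to 0–100% survival.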

[3] = system: HT 29 (Colon adenocarcinoma); assay: In vitro cytotoxicity, microculture tetrazolium (MTT) assay, HT29; type: cell-based, Human; settings: further 48 h, Table 1
Method in brief: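 HT29 cells exposed to compound (1:3 series, 100 μM to 1.7 nM, quadruplicate) for 48 h at 37 °C, then 48 h in fresh medium. Viability by MTT reduction, formazan absorbance at 570 nm; four-parameter logistic fit on 0-100% survival scale.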

VLB/OV3 = assay: Resistance ratio of SKVLB over SKOV3 cytotoxicity (VLB/OV3); type: cell-based, Human; settings: ratio SKVLB to SKOV3; Table 1; 2880 min
Protocol: (§1) The microculture tetrazolium assay was used to test in vitro cytotoxicity. This assay is described in Plumb, J. A. et al., 1989 Cancer Research 49, 4435-4440, which is herein incorporated by reference. The cytotoxicity of compounds towards tumor cells is measured in vitro using the assay. This assay method is based upon the ability of live, but not dead cells to reduce the yellow water soluble dye 3-(4,5-dimethylthiazol-2-yl)-2,5-diphenyltetrazolium bromide (MTT) to its water insoluble purple formazan product.
SKOV3 (Ovarian adenocarcinoma)--provided by Dr. V. Ling, Ontario Cancer Institute.
SKVLB (Ovarian; multidrug resistant)--Dr. V. Ling, Ontario Cancer Institute.
For each assay, doxorubicin is included as an inter-assay standard. This allows us to monitor the behaviour of the assay in general, and in particular, to check that the SKVLB line has maintained its resistant phenotype.
(§2) Cells are plated out in 100 μl of culture medium in the microtiter plates at a density of around 1,500-4,000 cells per well. The plates are incubated overnight to allow the cells to become adherent after which the test compound is added (100 μl of appropriate dilution per well). The cells are incubated with test compound at 37° C. for 48 h after which the compound is replaced with fresh medium. After a further 48 h incubation at 37° C., 50 μl of MTT solution (2 mg/ml) is added to each well. The plates are incubated in the dark for 4 h at 37° C. after which the medium is removed. The MTT formazan product is extracted from the cells by the addition of 200 μl DMSO followed by 50 μl of Sorensen's buffer. The plates are shaken briefly and the absorbance at 570 nm is read using a Molecular Devices UV max plate reader. Curves are fit to the MTT assay data using a four parameter logistic equation, and the data are normalized to fit a 0% to 100% survival scale.

[4] = system: SKVLB (Ovarian; multidrug resistant); assay: In vitro cytotoxicity, microculture tetrazolium (MTT) assay, SKVLB; type: cell-based, Human; settings: for pIC50: SKVLB multidrug resistant ovarian, 48 h with compound, further 48 h, MTT, Table 1
Method in brief: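 Multidrug-resistant SKVLB ovarian cells, 1,500–4,000 per well, exposed to compound (1:3 dilutions, 100 μM to 1.7 nM, quadruplicate) for 48 h at 37 °C, then 48 h in fresh medium. Viability by MTT reduction, formazan read at 570 nm; four-parameter logistic fit on a 0–100% survival scale.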

MCF-7 = assay: In vitro cytotoxicity, MCF-7; type: cell-based; settings: breast cancer, MCF-7
Protocol: as §1
as §2, with “Curves are fit to the MTT assay data using a four parameter logistic equation, and the data are normalized to fit a 0% to 100% survival scale.” left out

MCF-7/ADR = assay: In vitro cytotoxicity, MCF-7/ADR; type: cell-based; settings: breast cancer, MCF-7
Protocol: as §1
as §2, with “Curves are fit to the MTT assay data using a four parameter logistic equation, and the data are normalized to fit a 0% to 100% survival scale.” left out

[5] = literature; cited from earlier work
[6] = Homo sapiens, HT-29, 48 h with compound

Row | Compound | VLB/OV3 (VLB/OV3) | pIC50 ([1]; Homo sapiens, SK-OV-3) | pIC50 ([2]; Homo sapiens) | pIC50 (Lox (Melanoma); Homo sapiens) | pIC50 [3, 6] | pIC50 ([4]; Homo sapiens) | further results
1 | C=CC[C@@H]1CC2=C(C(=O)c3ccccc3C2=O)[C@@H](O[C@H]2C[C@H](NC(=O)C(F)(F)F)[C@H](O)[C@H](C)O2)O1 (mixture of isomers) [BCH2031, (1'S,1S,3S) and (1'S,1-R,3-R)-3-([2',3',6'-trideoxy-3'-trifluoroacetamido-4'-hydroxy-L-lyhohexopyranose]-5,10-dioxo-3,4,5,10-tetrahydronaphtho-[2,3-c]-pyran-3-yl)-propene] | 3 |  |  |  |  |  | pIC50 [1]: 5.22; pIC50 [2]: 4.80; pIC50 (Lox (Melanoma)): 5.55; pIC50 ([3]; 48 h with compound): 5.07
2 | CC(=O)C1CC2=C(C(=O)c3ccccc3C2=O)C(OC[C@@H]2CCCN2C(=O)OC(C)(C)C)O1 (mixture of isomers) [BCH2067, (1S, 2'S, 3R) and (1R, 2'S, 3S)-methyl-(1-[O-N-BOC-prolinol]-5,10-dioxo-3,4,5,10-tetrahydro-1-H-naphtho[2,3-C]pyran-3-yl) ketone] | 2 | 5.92 | 6.27 | 5.96 | 6.49 |  | 
3 | CC(=O)C1CC2=C(C(=O)c3ccccc3C2=O)C(OCC2CCCCN2)O1 (racemic) [BCH2069, Methyl-(1-O-[2'-piperidinemethanol]-5,10-dioxo-3,4,5,10-tetrahydronaphthaleno-[2,3-c]pyran-3-yl) ketone, racemic, hydrochloride] | 2-9.78 | 7.31 | 5.95 | 7.04 | 6.46 | 6.32 to 7.08 | 
4 | CO[C@@H]1O[C@@H](C(=O)Nc2ccccc2)CC2=C1C(=O)c1ccccc1C2=O (relative stereo) [BCH2041, (1,3-trans)-anline-(1-methoxy-5,10-dioxo-3,4,5,10-tetrahydro-1H-naphtho-[2,3-c]-pyran)-3-carboxamide] | 5 | 5.67 | 5.25 | 5.72 | 5.72 | 5.00 | 
5 | CO[C@@H]1O[C@@H](C(=O)O)CC2=C1C(=O)c1ccccc1C2=O (relative stereo) [BCH2045, (1,3-trans)-1-methoxy-3-carboxyl-5,10-dioxo-3,4,5,10-tetrahydro-1H-naphtho-[2,3-c]-pyran] | 3 | 5.28 | 4.89 | 5.34 | 5.95 | 4.82 | 
6 | CC(=O)[C@H]1CC2=C(C(=O)c3ccccc3C2=O)[C@H](OC2C[C@H](NC(=O)C(F)(F)F)[C@H](O)[C@H](C)O2)O1 (stereo partly drawn) [BCH1146, (1'S,1S,3R)-Methyl (5,10-dioxo-1-(2',3',6'-trideoxy-3'-trifluoroacetamido-4'-hydroxy-L-lyxohexopyranose)-3,4,5,10-tetrahydronaphtho [2,3-C]pyran-3-yl) ketone] |  |  |  |  |  |  | potency relative to adriamycin (MCF-7): less potent than adriamycin; effect in sensitive versus adriamycin resistant cell line (MCF-7/ADR): nearly as effective in the sensitive and adriamycin resistant cell line
7 | CC(=O)[C@@H]1CC2=C(C(=O)c3ccccc3C2=O)[C@@H](O[C@H]2C[C@H](NC(=O)C(F)(F)F)[C@H](O)[C@H](C)O2)O1 [BCH1184, (1'S,1R,3S)-Methyl (5,10-dioxo-1-(2',3',6'-trideoxy-3'-trifluoroacetamido-4'-hydroxy-L-lyxohexopyranose)-3,4,5,10-tetrahydronaphtho [2,3-C]pyran-3-yl) ketone] | 4.75-22.34 | 7.20 to 8.30 | 6.28 to 6.55 | 6.64 to 7.73 | 7.79 to 8.64 | 6.52 to 7.27 | 
8 | CC[C@@H]1CC2=C(C(=O)c3ccccc3C2=O)[C@@H](O[C@H]2C[C@H](NC(=O)C(F)(F)F)[C@H](O)[C@H](C)O2)O1 [BCH2026, (1'S, 1R, 3R)-5,10-dioxo-3-ethyl-1-(2',3',6'-trideoxy-3'-trifluoroacetamido-L-lyxohexopyranose)-3,4,5,10-tetrahydro-1H-naphtho-[2,3-c]pyran] | > 7 | 4.82 | 4.50 | 5.67 | 4.66 | < 4.00 | 
9 | COC1OC(C(=O)NCCCN(C)C)=CC2=C1C(=O)c1ccccc1C2=O (stereo not drawn) [BCH2051, 1-Methoxy-5,10-dioxo-5,10-dihydro-1H-naphtho[2,3-c]pyran-3-[N-(3-dimethylamino-propyl)carboxamide] hydrochloride monohydrate] | 9.3-14.14 | 7.54 to 8.14 | 7.16 to 7.38 | 7.52 to 7.78 | 6.87 to 7.04 | 6.39 to 7.17 | in vitro antitumor potency ([1]; in vitro, Tables 1 and 2): intense in vitro antitumor potency; multidrug resistance / effect in multidrug resistant cell line SKVLB ([4]; SKVLB cell line): significantly avoiding multidrug resistance
10 | CC(C)[C@H]1CC2=C(C(=O)c3ccccc3C2=O)[C@H](O[C@H]2C[C@H](NC(=O)C(F)(F)F)[C@H](O)[C@H](C)O2)O1 [BCH2052, (1'S, 1S, 3R)-5,10-dioxo-3-isopropyl-1-(2',3',6'-trideoxy-3'-trifluoroacetamido-L-lyxohexopyranose)-3,4,5,10-tetrahydro-1H-naphtho-[2,3-c]-pyran] | 3.78-4.02 | 5.15 to 5.27 | 4.63 to 5.02 | 5.49 to 5.52 | 4.81 to 4.97 | 4.55 to 4.69 | 
11 | CO[C@H]1C[C@H](O[C@@H]2O[C@@H](C(C)=O)CC3=C2C(=O)c2ccccc2C3=O)O[C@@H](C)[C@H]1OS(C)(=O)=O [BCH2072, (1'-S, 1'S, 3-R)-methyl-(1-[2',3',4',6' tetradeoxy-3'-methoxy-4'-O-methanesulfonyl-L-lyxohexopyranose)-5,10-dioxo-3,4,5,10 tetrahydronaphtho-[2,3-c]pyran-3-yl) ketone] | 2.79-15.46 | 6.95 to 7.19 | 6.46 to 7.63 | 6.99 | 7.00 to 7.27 | 6.00 to 6.50 | 
12 | CC(=NO)[C@@H]1CC2=C(C(=O)c3ccccc3C2=O)[C@@H](O[C@H]2C[C@H](NC(=O)C(F)(F)F)[C@H](O)[C@H](C)O2)O1 [BCH2115, (1'S, 1R, 3S)-3 (oximoethyl)-5,10-dioxo-1 (2,3,6-trideoxy-3-trifluoroacetamido-L-lyxohexopyranose)-3,4,5,10-tetrahydro-1H-naphtho-(2,3-c)-pyran] | > 50 |  |  |  |  |  | pIC50 [1]: 5.64; pIC50 [2]: 5.28; pIC50 (Lox (Melanoma)): 5.40; pIC50 ([3]; 48 h with compound): 5.25
13 | CC1OC2OC(=O)OC2C2=C1C(=O)c1c(O)cccc1C2=O (stereo not drawn) [kalafungin] |  |  |  |  |  |  | antibacterial as well as antifungal activity [5]: potent antibacterial as well as antifungal activity
14 | C[C@@H]1O[C@@H](CC(=O)O)CC2=C1C(=O)c1c(O)cccc1C2=O [nanaomycin A] |  |  |  |  |  |  | antibacterial as well as antifungal activity [5]: potent antibacterial as well as antifungal activity
15 | (1S, 2'S, 3R) and (1R, 2'S, 3S)-methyl-(1-[O-prolinol]-3,4,5,12-tetrahydronaphtho-[2,3-C]pyran-3-yl) ketone hydrochloride salt [BCH1658] | 6.31 |  |  |  |  |  | pIC50 [1]: 6.63; pIC50 [4]: 5.83; pIC50 [2]: 6.31; pIC50 (Lox (Melanoma)): 6.50; pIC50 ([3]; 48 h with compound): 6.18
